Assay results reported in patent US10828372B2, “Compositions and methods for the inhibition of fibrosis” (WISCONSIN ALUMNI RESEARCH FOUNDATION, priority 2017, dated 2020).
pIC50: −log10 of the molar value. “And” between values parts separate entries of the source, which are not always exact repeats. Identical values can stand only once. Where no end group is shown, it is not given here.

Tests used:
[1] = system: Alexa 488-labeled human plasma FN; assay: Matrix Assembly in vitro Assay (MAA), A488-FN deposition by AH1F fibroblasts; format: cell-based; settings: 24 hours, viability-normalized fluorescence, n=4, FUD run alongside each conjugate
Alexa 488-labeled human plasma FN, sequence (P02751 32-608 limits assumed): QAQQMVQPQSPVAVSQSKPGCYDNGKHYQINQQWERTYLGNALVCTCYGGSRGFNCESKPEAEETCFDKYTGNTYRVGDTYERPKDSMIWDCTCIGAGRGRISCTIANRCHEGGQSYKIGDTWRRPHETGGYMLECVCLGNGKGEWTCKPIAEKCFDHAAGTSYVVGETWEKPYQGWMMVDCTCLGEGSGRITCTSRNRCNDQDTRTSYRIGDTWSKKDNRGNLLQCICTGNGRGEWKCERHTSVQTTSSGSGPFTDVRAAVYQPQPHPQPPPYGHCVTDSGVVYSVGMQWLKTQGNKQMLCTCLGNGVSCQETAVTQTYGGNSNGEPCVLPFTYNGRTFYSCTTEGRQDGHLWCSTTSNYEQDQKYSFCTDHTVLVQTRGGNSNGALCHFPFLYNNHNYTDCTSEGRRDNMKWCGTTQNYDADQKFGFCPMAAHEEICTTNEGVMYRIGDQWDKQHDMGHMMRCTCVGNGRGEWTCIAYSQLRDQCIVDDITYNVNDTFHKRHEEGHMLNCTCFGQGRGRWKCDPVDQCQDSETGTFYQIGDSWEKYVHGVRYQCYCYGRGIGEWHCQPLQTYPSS
Experimental: Matrix Assembly Assay: The matrix assembly assay was conducted in the 96-well plate format as described in the art. AH1F human skin fibroblast cells resuspended in 2% fetal bovine serum were added to each well for a density of 60,000 cells per well. A 1 hr incubation period at 37° C. followed to allow cell adhesion and spreading. FUD, PEG-FUD, or PEG-mFUD were added to each well following incubation. Immediately, Alexa Fluor® 488 fluorescence labeled human plasma fibronectin (A488-FN) was then added to each well for a final FN concentration of 11 μg/mL. The cells were then incubated for 24 hours at 37° C. Non-assembled FN was removed from each well by washing with Hank's Balanced Salt Solution (HBSS) containing Ca^2+ and Mg^2+. The well volume was restored to 60 μL with HBSS and a fluorescence reading from the bottom of each well was taken using a Synergy™ H1 (Biotek) plate reader (excitation: 485 nm, Emission: 538 nm). Cell viability was quantified using CellTiter-Glo® cell viability assay using the manufacturer's protocol. A 30 μL aliquot of HBSS was removed from each well and was replaced with 30 μL of the luminescence reagent prepared shortly beforehand. Luminescence was quantified using the same plate reader. The average of fluorescence values of a no A488FN or inhibitor control group were routinely subtracted from the readings of each well and were normalized using each well's corresponding luminescence value. Lastly, the cell viability normalized fluorescence values were expressed as a percentage of the 0 nM drug control group. The final results were processed using Graphpad Prism 7.0 software. IC50 values were extracted using a four-parameter dose-response curve function. Student's t test was used to determine significance of differences among peptides at a given drug concentration.
The PEG-FUD FN fibrillogenesis inhibitory performance was evaluated in vitro using the matrix assembly assay (MAA). The methodology of this assay is depicted in FIG. 8. The MAA quantifies ECM deposition of exogenous AlexaFluor® 488-labeled FN (A488FN) by a confluent monolayer of fibroblasts after an incubation period by measuring fluorescence of deposited FN. In this study, the performance of PEG-FUD peptides was compared to that of FUD and the PEG-mFUD control peptide using the AH1F human foreskin fibroblast cell line.

[2] = target: T1, 70K N-terminal domain of FN (Homo sapiens, UniProt P02751); settings: background statement; cited from earlier work
T1 construct: specifically to the 70K N-terminal domain of FN involved in fibrillogenesis
T1 sequence (P02751 32-609 limits assumed): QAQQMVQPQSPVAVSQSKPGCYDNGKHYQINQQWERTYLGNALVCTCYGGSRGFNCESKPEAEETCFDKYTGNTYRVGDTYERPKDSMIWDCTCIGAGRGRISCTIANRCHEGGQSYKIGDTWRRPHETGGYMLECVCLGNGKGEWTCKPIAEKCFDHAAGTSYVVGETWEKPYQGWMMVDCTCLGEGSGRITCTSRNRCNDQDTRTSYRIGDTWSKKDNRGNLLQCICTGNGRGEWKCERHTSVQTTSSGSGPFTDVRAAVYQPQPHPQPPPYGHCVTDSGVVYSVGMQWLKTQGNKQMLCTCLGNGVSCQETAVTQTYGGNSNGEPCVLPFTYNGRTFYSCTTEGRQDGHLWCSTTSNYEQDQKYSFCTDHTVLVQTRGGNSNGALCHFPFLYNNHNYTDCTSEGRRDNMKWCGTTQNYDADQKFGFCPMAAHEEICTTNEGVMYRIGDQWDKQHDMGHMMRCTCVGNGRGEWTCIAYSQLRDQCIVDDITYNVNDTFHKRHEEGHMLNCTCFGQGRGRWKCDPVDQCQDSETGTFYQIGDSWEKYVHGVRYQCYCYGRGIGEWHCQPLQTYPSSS

[3] = system: bleomycin-induced pulmonary fibrosis; assay: Bleomycin-induced pulmonary fibrosis model: hydroxyproline and survival; format: in vivo, mouse
Experimental: All efforts were made to minimize suffering. The Bleomycin model is a rodent model representing a human equivalent of pulmonary fibrosis with the fibrotic response peaking between 14 and 21 days post-bleomycin installation. To initiate bleomycin injury, mice were anesthetized with ketamine (100 mg/kg) and xylazine (15 mg/kg) prior to delivering a single intratracheal dose of bleomycin (1 U/kg, Teva Pharmaceutical Industries, Ltd) reconstituted in 0.9% Normal Saline (NS) or NS alone as control.
End-points for analysis: On day 14, mice were euthanized and lungs homogenized for hydroxyproline and western blot. Additionally, mouse survival by day 14 was compared between bleomycin PEG-FUD- and bleomycin PEG-mFUD-treated groups using Log-Rank test.
Hydroxyproline assay: Hydroxyproline assay was performed by Dounce homogenizing right lungs in deionized water, hydrolyzing in 6 N HCl for three hours at 120° C., drying for 45 min at 65° C., incubating in citrate-acetate buffer and chloramine-T for 20 min at room temperature, followed by Ehrlich's reagent for 15 min at 65° C. Subsequently, the samples were cooled to room temperature and the absorbance measured at 550 nm. […] Hydroxyproline results were analyzed using Students t-test with Bonferroni post-hoc test, comparing bleomycin- and PEG-FUD-treated mice to those treated with bleomycin and PEG-mFUD.

[4] = Bleomycin model: PEG-FUD organ accumulation (Western blot, ex vivo fluorescence imaging); format: in vivo, mouse; settings: day 3-13 s.c. injection, bleomycin-injured vs uninjured (NS) lungs
Experimental: Separately, on day three post-bleomycin treatment, another animal set was treated with a single SC dose of PEG-FUD mixed with 25% Cy5-fluorophore labeled PEG-FUD or fully unlabeled PEG-FUD control (12.5 mg/kg). These mice were sacrificed seven days post-bleomycin treatment and their lungs, kidneys and livers imaged ex vivo using the fluorescence protocol on In Vivo Imaging System.
Western blot: Homogenized lung tissue was lysed for protein using 5% SDS/5 M Urea lysing buffer. The lysates were sonicated and boiled for 5 min prior to being subject to electrophoresis on polyacrylamide gels at 400 V for 2 hours and transferred at 100 V for 2.5 hours. Membranes were blotted with in-house made anti-FUD antibody produced in rabbit (0.7 μg/ml suspended in 2% bovine serum albumin) or β-actin housekeeping antibody produced in mouse (Sigma-Aldrich, 2 μg/ml suspended in 2% bovine serum albumin) and corresponding HRP-conjugated secondary antibody (1:3000). Blots were developed using an enhanced chemiluminescence (ECL) reaction (GE) and imaged on GE LAS4000 chemiluminescence imager to obtain images below the saturated threshold. […]
In Vivo Imaging System: Lungs, livers and kidneys of mice treated with bleomycin or NS and a single dose of SC Cy5-PEG-FUD or unlabeled PEG-FUD were imaged using the fluorescence protocol in the In Vivo Imaging System. […]

FUD: 49 amino acid FUD peptide, SEQ ID NO: 1, recombinantly expressed, His-tag removed; inhibitor of fibronectin fibrillogenesis (KDQSPLAGESGETEYITEVYGNQQNPVDIDKKLPNETGFSGNMVETEDT; human) [reference compound]
pIC50 [1]: 7.89 and 7.59 and 7.72
binding affinity [2]: nanomolar affinity

PEG-FUD: PEGylated FUD prepared as in Example 1, PEG size not stated; approximately 27 kDa by mass spectrometry, likely the 20 kDa conjugate (KDQSPLAGESGETEYITEVYGNQQNPVDIDKKLPNETGFSGNMVETEDT; not fully specified (N-terminus); also: PEG size not given here)
survival to the end of the 14-day trial ([3]; bleomycin-treated mice, s.c. 12.5 mg/kg/day day 3-13): 100%
collagen accumulation (hydroxyproline assay, right lung) ([3]; day 14 post-bleomycin, s.c. 12.5 mg/kg/day day 3-13, vs PEG-mFUD): significant reduction of collagen accumulation
PEG-FUD accumulation in lungs (Western blot) [4]: striking increase in PEG-FUD accumulation in bleomycin-injured lungs
